Source: paper PMC11124362, “Metabolism, Disposition, Excretion, and Potential Transporter Inhibition of 7–16, an Improving 5-HT2A Receptor Antagonist and Inverse Agonist for Parkinson’s Disease” (Molecules, 2024)

Tests used:
[1] = Excretion and metabolite identification in urine and feces of intact rats; type: in vivo, Sprague-Dawley rats; settings: for Dose% Feces, female / Dose% Urine, female: female rats; for Dose% Feces, female / Dose% Urine, female / Dose% Feces, male / Dose% Urine, male: single oral dose [14C]7–16 3 mg/100 µCi/kg; for Dose% Feces, male / Dose% Urine, male: male rats
Procedure: (§1) In the urine and feces excretion experiment, six rats (3 females and 3 males) were administered a single oral dose of [^14C]7–16 at 3 mg/100 µCi/kg. Urine, feces and cage washing/cleaning solution samples were collected from 0 to 168 h following drug administration at the following time intervals: 0–8, 8–24 h (0–24 h for feces), 24–48, 48–72, 72–96, 96–120, 120–144, and 144–168 h. In the biliary excretion experiment, 8 rats using a bile duct cannula (BDC) (4 females and 4 males) were administered a single oral dose of [^14C]7–16 at 3 mg/100 µCi/kg. Bile, urine, feces, and cage washing solution were collected from before and 0–72 h after oral administration at the following time intervals: 0–4, 4–8 (urine 0–8), 8–24 (feces 0–24), 24–48, and 48–72 h. All samples were collected and refrigerated at −20 °C until determination of the radioactive concentrations by liquid scintillation counter (Perkin Elmer Corporation, Waltham, MA, USA). Urine, feces, and bile samples at each time period were mixed by equal percentages of either volume or weight. After the mixed samples were treated, the radio-profiles and metabolite identification in the bile, urine, and feces samples were carried out by LC-RAM and UPLC-Q Exactive HRMS, and the TRA% of each metabolite in plasma and the percentage of dose (dose%) of each compound in urine, feces, and bile samples were calculated.

[2] = Metabolite identification in rat plasma after oral [14C]7–16; type: in vivo, Sprague-Dawley rats; settings: single oral dose [14C]7–16 3 mg/100 µCi/kg, pooled plasma 0.25-24 h; for TRA% Plasma, female: female rats; for TRA% Plasma, male: male rats
Procedure: The rats received a single oral dose of [^14C]7–16 at 3 mg/100 µCi/kg (3 females and 3 males for each time point). At 0.25, 1, 6, and 24 h after administration, about 0.3 mL of blood was collected into a collection vessel containing K2-EDTA anticoagulant by cardiac puncture, and the plasma samples were acquired after centrifugation at 8000 rpm for 10 min at 4 °C. All samples were stored at −20 °C until analysis. The rat plasma samples at each time point were mixed in accordance with the area under the concentration curve contribution at corresponding time intervals. After the pooled plasma samples were pre-treated, the radio-profiles of plasma samples were detected using Shimadzu LC coupled with a radioactivity monitor (LC-RAM, Scintillation and Luminescence Counter Technology, Perkin Elmer Corporation, Waltham, MA, USA), and the metabolites were identified by UPLC-QE HRMS (Thermo Electron Corporation, Waltham, MA, USA). The percentage of each metabolite based on the total radiation intensity (TRA%) in plasma samples was calculated. The structures of metabolites were identified by the same method used for metabolite identification in the liver microsomes of different species.

[3] = Excretion and metabolite identification in bile duct cannulated (BDC) rats; type: in vivo, Sprague-Dawley rats; settings: single oral dose [14C]7–16 3 mg/100 µCi/kg; for Dose% Bile, female: female BDC rats; for Dose% Bile, male: male BDC rats
Procedure: as §1

[4] = Metabolite identification in dog liver microsomes; type: in vitro ADME; settings: 7–16 10 µM, liver microsomes 1 mg/mL, NADPH, 37 °C, 60 min
Procedure: (§2) In accordance with our previous methods, 7–16 (10 µM) was incubated with mouse, rat, dog, monkey, and human liver microsome proteins (1 mg/mL) in 100 mM sodium phosphate buffer (pH 7.4) containing 10 mM magnesium chloride and 2 mM NADPH at 37 °C for 60 min. All samples were prepared in duplicates. The reactions were terminated by adding three times the volume of ice-cold acetonitrile (600 µL) and stored at −20 °C until analysis. Control samples without NADPH and 0-time point samples were included. As a positive control, testosterone (10 µM), which was metabolized to produce the hydroxylation metabolite, was used as a substrate to confirm the activity of the incubation system.
(§3) After pre-treatments, the samples were analyzed by an Acquity UPLC system coupled with a diode array detector (Waters Corporation, Milford, MA, USA) and Q Exactive HRMS (Thermo Electron Corporation, Waltham, MA, USA) (UPLC–UV-Q Exactive HRMS). Samples were separated on an Agilent XDB C18 column (150 × 2.1 mm i.d. 3.5 μm, Agilent Corporation, Santa Clara, CA, USA) at 40 °C by gradient elution with water and acetonitrile containing 0.1% formic acid. The flow rate was 0.40 mL/min. The ultraviolet (UV) detection wavelength was 286 nm. Q Exactive HRMS were operated at positive ion mode (3.5 kV) using a heating electrospray ionization source. Mass calibration was required to be performed before conducting experiments so as to achieve the best mass accuracy and mass calibration should be performed every five days. The metabolites were detected by full MS/dd-MS^2 analysis from m/z 100 to m/z 1000. The resolution of the first-class scan and second-class scan was 70,000 and 17,500, respectively. Thermo Compound Discover software was used to identify expected and unknown metabolites, and we finally proposed the 7–16 metabolic pathways based on the deduced metabolites and relevant drug biotransformation knowledge.

[5] = Metabolite identification in human liver microsomes; type: in vitro ADME; settings: 7–16 10 µM, liver microsomes 1 mg/mL, NADPH, 37 °C, 60 min
Procedure: as §2, §3

[6] = Metabolite identification in rat liver microsomes; type: in vitro ADME; settings: 7–16 10 µM, liver microsomes 1 mg/mL, NADPH, 37 °C, 60 min
Procedure: as §2, §3

[7] = Metabolite identification in mouse liver microsomes; type: in vitro ADME; settings: 7–16 10 µM, liver microsomes 1 mg/mL, NADPH, 37 °C, 60 min
Procedure: as §2, §3

[8] = Metabolite identification in monkey liver microsomes; type: in vitro ADME; settings: 7–16 10 µM, liver microsomes 1 mg/mL, NADPH, 37 °C, 60 min
Procedure: as §2, §3

Row | Dose% Feces, female [1] [%] | Dose% Urine, female [1] [%] | recovery of radioactivity within the first 24 h, percent of dose ([1]; intact rats, first 24 h post-administration) [%] | Dose% Feces, male [1] [%] | Dose% Urine, male [1] [%] | TRA% Plasma, female [2] [%] | TRA% Plasma, male [2] [%] | Dose% Bile, female [3] [%] | Dose% Bile, male [3] [%] | Relative Abundance, UV Area% Dog [4] [%] | Relative Abundance, UV Area% Human [5] [%] | Relative Abundance, UV Area% Rat [6] [%] | Relative Abundance, UV Area% Mouse [7] [%] | Relative Abundance, UV Area% Monkey [8] [%] | SMILES
1 | 16.8 | 23.6 | 76.8 | 5.29 | 9.79 | 81.9 | 57.3 | 0.76 | 0.53 | – | – | – | – | – | CN1CCC(N(Cc2ccc(F)cn2)C(=O)N[14CH2]c2ccc(OCC(F)(F)F)cc2)CC1 [[^14C]7–16]
2 | 21.1 | 2.66 | – | 24.2 | 5.77 | 1.40 | 3.70 | 2.71 | 3.83 | 0.47 | 0.78 | 1.29 | 0.39 | 1.73 | O=C(NCc1ccc(OCC(F)(F)F)cc1)N(Cc1ccc(F)cn1)C1CCNCC1 [Compound M440]
3 | 4.97 | 4.34 | – | 5.42 | 5.75 | 1.11 | 2.50 | 0.41 | 0.83 | 1.73 | 0.60 | 1.10 | 0.61 | 2.52 | CN1CCC(N(Cc2ccc(F)cn2)C(=O)NCc2ccc(O)cc2)CC1 [Compound M372]
